# Laboratory results published in patent US20040072992A1, “Novel peptide capable of specifically acting on biological membrane” (priority 2002, published 2004).
# “And” between values parts separate entries of the source, which are not always exact repeats. Identical values can stand only once. Where no end group is shown, it is not given here.
# Legend:
# [1] = Anti-cancer activity, PC-3; format: cell-based, human; details: PC-3, prostate cancer; for CC50 at 2 days: human, PC-3 cells (prostate cancer cells), read-out: LC50; for CC50: read-out: LC50 (the source's name)
# Method: (§1) Anti-cancer activity was evaluated using a method complying with an anti-cancer agent screening method (1990) using a human cancer cell panel which has been carried out by U.S. National Cancer Institute (NCI). Cells employed in experiments were from the following three cell lines: HL60 cell (cell line derived from human leukemia); HeLa cell (cell line derived from human uterine cancer); and HCT116 cell (cell line derived from human large intestine cancer). Media suitable for use of these cells are RPMI-1640 medium containing 10% FCS; a MEM medium containing 10% CS; and McCoy5A medium containing 10% FCS, respectively.
# (§2) Cells suspended in themedium wereplated into 96-well plates at a concentration of 1×10^5 cells/cm^2, followed by incubation overnight. Peptide solutions containing various concentrations of the peptide of the present invention were added to the plates, followed by incubation at 37° C. for 2 days in a CO2 incubator. During culturing, the growth of the cells was measured by colorimetry using sulforhodamine B and the peptide concentration was categorized into any of GI50 which is the concentration at which the growth is inhibited by 50% as compared to the control; TGI which is the concentration at which the number of cells is seemingly not increased or decreased from the time of addition of the peptide of the present invention, i.e., the growth is suppressed to the same number of cells as when the peptide was added: and LC50 which is the concentration at which the number of cells is decreased to 50% of that at the time of addition of the peptide.
# (§3) Thereafter, various cancer cells were employed to confirm the anti-cancer activity of mast21R. Each cancer cell was cultured in RPMI-1640 medium containing 10% FCS.
# [2] = Anti-cancer activity, NIH OVCAR-3; format: cell-based, human; details: NIH OVCAR-3, ovarian cancer; for CC50 at 2 days: human, NIH OVCAR-3 cells (ovarian cancer cells), read-out: LC50; for CC50: read-out: LC50 (the source's name)
# Method: as §1, §2, §3
# [3] = Anti-cancer activity, 5637 cell; format: cell-based, human; details: bladder cancer; for CC50 at 2 days: human, read-out: LC50; for CC50: read-out: LC50 (the source's name)
# Method: as §1, §2, §3
# [4] = Anti-cancer activity, KATO III cell; format: cell-based, human; details: for CC50 at 2 days: human, KATO III cells (stomach cancer cells), read-out: LC50; for CC50: stomach cancer, read-out: LC50 (the source's name)
# Method: as §1, §2, §3
# [5] = Anti-cancer activity, ACHN; format: cell-based, human; details: for CC50 at 2 days: human, ACHN cells (kidney cancer cells), read-out: LC50; for CC50: kidney cancer, read-out: LC50 (the source's name)
# Method: as §1, §2, §3
# [6] = Anti-cancer activity, LK-2; format: cell-based, human; details: LK-2, lung cancer; for CC50 at 2 days: human, LK-2 cells (lung cancer cells), read-out: LC50; for CC50: read-out: LC50 (the source's name)
# Method: as §1, §2, §3
# [7] = Anti-cancer activity, SH-10-TC; format: cell-based, human; details: for LC50 at 2 days: human, SH-10-TC cells (stomach cancer cells); for LC50: stomach cancer
# Method: as §1, §2, §3
# [8] = Anti-cancer activity, MCF7; format: cell-based, human; details: for LC50 at 2 days: human, MCF7 cells (breast cancer cells); for LC50: MCF7, breast cancer
# Method: as §1, §2, §3
# [9] = tested on: Erwinia carotovora (NBRC3380); assay: Antibacterial activity against plant pathogenic bacteria; format: cell-based; details: 30° C., 16 to 24 h
# Method: Mast21, mast21R, ALR6, and KVL6 were evaluated with respect to antibacterial activity against Erwinia carotovora (NBRC3380) which is a plant pathogenic bacterium causing soft rot. Specifically, a minimum concentration of a peptide capable of inhibiting the growth of bacteria was determined using microtiter plates. Bacteria were cultured for 16 h in culture medium (Difco Nutrient Broth 8 g, NaCl 5 g/L, pH 7.0), followed by measurement of absorbance at A600. Each bacterial strain was diluted into a final concentration of 1×10^6 CFU/ml. For each peptide, 5 mM aqueous solution was prepared, and thereafter, was subjected to serial dilution. The peptide serial dilutions (50 μl for each) were added to respective wells of the microplate to which 50 μl of the bacterial solution had been added (final cell concentration: 5×10^5 CFU/ml, final peptide concentration: 0 to 50 μM). […] The unit of concentration described in Table 9 is μM.
# [10] = Anti-cancer activity, colo205; format: cell-based, human; details: colo205, large intestine cancer; for CC50 at 2 days: human, read-out: LC50; for CC50: read-out: LC50 (the source's name)
# Method: as §1, §2, §3
# [11] = Anti-cancer activity, A549; format: cell-based, human; details: A549, lung cancer; for CC50 at 2 days: human, read-out: LC50; for CC50: read-out: LC50 (the source's name)
# Method: as §1, §2, §3
# [12] = Anti-cancer activity, D98-AH2; format: cell-based, human; details: for CC50 at 2 days: human, D98-AH2 cells (uterine cancer cells), read-out: LC50; for CC50: D98-AH2, uterine cancer, read-out: LC50 (the source's name)
# Method: as §1, §2, §3
# [13] = Anti-cancer activity, DU-145; format: cell-based, human; details: DU-145, prostate cancer; for CC50 at 2 days: human, read-out: LC50; for CC50: read-out: LC50 (the source's name)
# Method: as §1, §2, §3
# [14] = Anti-cancer activity, A172; format: cell-based, human; details: A172, glioblastoma; for CC50 at 2 days: human, read-out: LC50; for CC50: read-out: LC50 (the source's name)
# Method: as §1, §2, §3
# [15] = Anti-cancer activity, EJ-1 cell; format: cell-based, human; details: for CC50 at 2 days: human, EJ-1 cells (bladder cancer cells), read-out: LC50; for CC50: bladder cancer, read-out: LC50 (the source's name)
# Method: as §1, §2, §3
# [16] = Anti-cancer activity, HCT-15; format: cell-based, human; details: HCT-15, large intestine cancer; for CC50 at 2 days: human, HCT-15 cells (large intestine cancer cells), read-out: LC50; for CC50: read-out: LC50 (the source's name)
# Method: as §1, §2, §3
# [17] = Anti-cancer activity, EBC-1; format: cell-based, human; details: EBC-1, lung cancer; for CC50 at 2 days: human, EBC-1 cells (lung cancer cells), read-out: LC50; for CC50: read-out: LC50 (the source's name)
# Method: as §1, §2, §3
# [18] = Anti-cancer activity, SR-BR-3; format: cell-based, human; details: SR-BR-3, breast cancer; for CC50 at 2 days: human, SR-BR-3 cells (breast cancer cells), read-out: LC50; for CC50: read-out: LC50 (the source's name)
# Method: as §1, §2, §3
# S. enteritidis ATC14028 = details: ATC14028, 18 h
# S. aureus IFO13276 = details: IFO13276, 18 h
# [19] = Anti-cancer activity, HL60 cell; format: cell-based, human; details: sulforhodamine B
# Method: as §1
# (§4) Cells suspended in themedium wereplated into 96-well plates at a concentration of 1×10^5 cells/cm^2, followed by incubation overnight. Peptide solutions containing various concentrations of the peptide of the present invention were added to the plates, followed by incubation at 37° C. for 2 days in a CO2 incubator. […]
# [20] = Anti-cancer activity, HeLa cell; format: cell-based, human; details: sulforhodamine B
# Method: as §1, §4
# E. coli CR-3 = details: CR-3, 18 h
# S. enteritidis ATCC1891 = details: ATCC1891, 18 h
# B. subtilis IFO13722 = details: IFO13722, 18 h
# E. coli JCM1649 = details: JCM1649, 18 h
# [21] = Anti-cancer activity, HCT116 cell; format: cell-based, human; details: sulforhodamine B
# Method: as §1, §4
# E. coli CE-273 = details: CE-273, 18 h
# S. aureus JCM2413 = details: JCM2413, 18 h
# B. sereus IFO3457 = details: 18 h
# erythrocytes = details: red cells of human, 100 μM
# [22] = 2 days, read-out: LC50 (the source's name)
sequence,measurement,setting,value
"KVLKVLKVLKVLKVLKVL [KVL6, KVLKVLKVLKVLKVLKVL]",CC50 at 2 days,[1],> 100 µM
same,CC50 at 2 days,[2],> 100 µM
same,CC50 at 2 days,[3],100 µM
same,CC50 at 2 days,[4],100 µM
same,CC50 at 2 days,[5],80 µM
same,CC50 at 2 days,[6],> 100 µM
same,LC50 at 2 days,[7],60 µM
same,LC50 at 2 days,[8],100 µM
same,MIC,[9],3.1 μM and 3.2 μg/ml
same,CC50 at 2 days,[10],100 µM
same,CC50 at 2 days,[11],70 µM
same,CC50 at 2 days,[12],> 100 µM
same,CC50 at 2 days,[13],> 100 µM
same,CC50 at 2 days,[14],> 100 µM
same,CC50 at 2 days,[15],90 µM
same,CC50 at 2 days,[16],80 µM
same,CC50 at 2 days,[17],> 100 µM
same,CC50 at 2 days,[18],100 µM
"KVLKVLKVLKVLKVL [KVL5, KVLKVLKVLKVLKVL]",MIC,S. enteritidis ATC14028,100 µM
same,MIC,S. aureus IFO13276,100 µM
same,LC50 at 2 days,"[19]; human, HL60 cells (leukemia cell line)",> 100 µM
same,CC50 at 2 days,"[20]; human, HeLa cells (uterine cancer cell line), read-out: LC50",> 100 µM
same,MIC,E. coli CR-3,25 µM
same,MIC,S. enteritidis ATCC1891,25 µM
same,MIC,B. subtilis IFO13722,25 µM
same,MIC,E. coli JCM1649,12.5 µM
same,CC50 at 2 days,"[21]; human, read-out: LC50",> 100 µM
same,MIC,E. coli CE-273,6.3 µM
same,MIC,S. aureus JCM2413,200 µM
same,MIC,B. sereus IFO3457,200 µM
RNWRGIAGMARRLLGRNWRLM [mast21R],MIC,S. enteritidis ATC14028,3.1 µM
same,CC50,[1],60 µM
same,MIC,S. aureus IFO13276,6.25 µM
same,LC50,[19]; 2 days,20 µM
same,CC50,[20]; [22],20 µM
same,MIC,E. coli CR-3,1.6 µM
same,CC50,[2],80 µM
same,CC50,[3],50 µM
same,CC50,[4],50 µM
same,CC50,[5],30 µM
same,CC50,[6],> 100 µM
same,MIC,S. enteritidis ATCC1891,3.1 µM
same,LC50,[7],60 µM
same,LC50,[8],90 µM
same,MIC,B. subtilis IFO13722,1.56 µM
same,MIC,[9],1.6 μM and 2 μg/ml
same,MIC,E. coli JCM1649,3.1 µM
same,CC50,[10],50 µM
same,CC50,[11],50 µM
same,CC50,[12],50 µM
same,CC50,[13],90 µM
same,CC50,[21]; [22],2 µM
same,CC50,[14],50 µM
same,MIC,E. coli CE-273,3.1 µM
same,CC50,[15],20 µM
same,CC50,[16],30 µM
same,CC50,[17],70 µM
same,MIC,S. aureus JCM2413,6.25 µM
same,CC50,[18],90 µM
same,MIC,B. sereus IFO3457,3.1 µM
same,Hemolytic property (relative value),erythrocytes,13%
"ALRALRALRALRALRALR [ALR6, ALRALRALRALRALRALR]",CC50 at 2 days,[1],> 100 µM
same,CC50 at 2 days,[2],> 100 µM
same,CC50 at 2 days,[3],> 100 µM
same,CC50 at 2 days,[4],> 100 µM
same,CC50 at 2 days,[5],> 100 µM
same,CC50 at 2 days,[6],> 100 µM
same,LC50 at 2 days,[7],> 100 µM
same,LC50 at 2 days,[8],80 µM
same,MIC,[9],3.1 μM and 3.2 μg/ml
same,CC50 at 2 days,[10],> 100 µM
same,CC50 at 2 days,[11],> 100 µM
same,CC50 at 2 days,[12],> 100 µM
same,CC50 at 2 days,[13],> 100 µM
same,CC50 at 2 days,[14],> 100 µM
same,CC50 at 2 days,[15],> 100 µM
same,CC50 at 2 days,[16],> 100 µM
same,CC50 at 2 days,[17],> 100 µM
same,CC50 at 2 days,[18],100 µM
"KNWKGIAGMAKKLLGKNWKLM [mast21, reference compound]",MIC,S. enteritidis ATC14028,6.3 µM
same,CC50,[1],100 µM
same,MIC,S. aureus IFO13276,25 µM
same,MIC,E. coli CR-3,6.3 µM
same,CC50,[2],100 µM
same,CC50,[3],> 100 µM
same,CC50,[4],> 100 µM
same,CC50,[5],80 µM
same,CC50,[6],> 100 µM
same,MIC,S. enteritidis ATCC1891,6.3 µM
same,LC50,[7],90 µM
same,LC50,[8],100 µM
same,MIC,B. subtilis IFO13722,6.3 µM
same,MIC,[9],3.1 μM and 3.7 μg/ml
same,MIC,E. coli JCM1649,6.3 µM
same,CC50,[10],> 100 µM
same,CC50,[11],70 µM
same,CC50,[12],> 100 µM
same,CC50,[13],> 100 µM
same,CC50,[14],> 100 µM
same,MIC,E. coli CE-273,3.1 µM
same,CC50,[15],70 µM
same,CC50,[16],80 µM
same,CC50,[17],100 µM
same,MIC,S. aureus JCM2413,12.5 µM
same,CC50,[18],90 µM
same,MIC,B. sereus IFO3457,3.1 µM
same,Hemolytic property (relative value),erythrocytes,5.4%
